{
  "source": "patent US20040191172A1",
  "about": "“Preventive or therapeutic agents for dermatitis or alopecia, evaluation method of the agents, and transgenic mouse” (priority 2003, published 2004)",
  "system": "K5/IL-18 Tg (+) mice",
  "test": "Suppression of spontaneous dermatitis in K5/IL-18 transgenic (Tg (+)) mice, appearance and HE histopathology of back skin",
  "format": "in vivo",
  "settings": "1% (10 mg/mL) applied to back skin for consecutive seven days",
  "source_text": "The spontaneous dermatitis (A) refers to an inflammation that reaches its peak approximately on the 8th to 12th day after birth of an IL-18-introduced mouse and disappears after about four weeks and that has been identified by the inventors of the present invention for the first time. Pathologically speaking, in this inflammation, acanthosis (epidermal thickening) , hyperkeratosis, and inflammatory cell infiltrations that neutrophilic leukocytes are contained in dermis can be observed in dermal tissue, a slight sponge state is present in the epidermal base, and abscess formation in the cuticle due to epidermal neutrophilic infiltrations is observed (FIG. 3).\nThe evaluation method of the present invention can be performed as a method for screening agents for preventing/treating autoimmune dermatitis. The screening can be performed, for example, by the procedures of administrating an agent to be tested in either stage, before or after the occurrence of the peak of spontaneous dermatitis, and comparing mice without administration (control) in terms of the presence or the absence of peak occurrence, the size of the peak, the speed of peak disappearance or the like.\nNext, the agent of preventing/treating dermatitis of the present invention will be described more specifically by way of examples. […]",
  "data": [
    {"smiles": "C[C@@H]1C[C@H]2[C@@H]3CCC4=CC(=O)C=C[C@]4(C)[C@@]3(F)[C@@H](O)C[C@]2(C)[C@@]1(O)C(=O)CO", "note": "[dexamethasone]", "values": [
      {"measurement": "death from side effects (share of treated group)", "result": "about a half"}
    ]}
  ]
}
